Results as given in publication PMC6321019 (International Journal of Molecular Sciences, 2018).
Where a name gives a salt, the structure may show the parent alone.

Legend:
[1] = target: T1, HA-tagged Lys191 mutant of human histamine H1 receptor to alanine (HA-K191A) (Homo sapiens, UniProt P35367, K191A); test: [3H]mepyramine displacement binding to membranes of CHO cells expressing HA-K191A; conditions: HA-K191A vs HA-WT; for reduction of affinity by mutation of Lys191 to alanine (times): 25 °C; for Change in Entropy-Dependent Hydrophobic Binding Forces by the mutation of Lys191 to alanine: -T∆Sº from van 't Hoff plots (37, 25, 14 °C); for Change in Enthalpy-Dependent Electrostatic Binding Forces by the mutation of Lys191 to alanine: ∆Hº from van 't Hoff plots (37, 25, 14 °C)
T1 construct: expressed in transfected cells; host or cells: CHO cells; membrane preparations
T1 sequence (P35367 whole entry K191A): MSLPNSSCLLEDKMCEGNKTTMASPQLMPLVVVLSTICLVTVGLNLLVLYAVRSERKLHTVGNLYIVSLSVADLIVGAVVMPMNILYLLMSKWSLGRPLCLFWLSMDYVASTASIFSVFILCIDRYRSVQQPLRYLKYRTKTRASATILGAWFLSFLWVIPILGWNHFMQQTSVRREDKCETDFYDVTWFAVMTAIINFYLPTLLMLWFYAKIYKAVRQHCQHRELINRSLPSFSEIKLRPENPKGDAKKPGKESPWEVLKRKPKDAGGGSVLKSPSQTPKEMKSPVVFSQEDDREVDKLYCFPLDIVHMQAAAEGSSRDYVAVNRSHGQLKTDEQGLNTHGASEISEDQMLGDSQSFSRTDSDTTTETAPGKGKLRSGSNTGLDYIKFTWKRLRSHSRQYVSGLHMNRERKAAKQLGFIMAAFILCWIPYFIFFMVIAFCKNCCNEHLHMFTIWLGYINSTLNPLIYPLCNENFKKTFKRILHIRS

[2] = target: T2, hemagglutinin (HA)-tagged wild-type human histamine H1 receptor (HA-WT) (Homo sapiens, UniProt P35367); test: [3H]mepyramine displacement binding to membranes of CHO cells expressing HA-WT; conditions: van 't Hoff plots (37, 25, 14 °C); ∆Hº vs -T∆Sº
T2 construct: membrane preparations
T2 sequence (P35367 whole entry): as the sequence (P35367 whole entry K191A) above, with A191K counted along it

SMILES	reduction of affinity by mutation of Lys191 to alanine (times) [1]	Change in Binding Affinity by the mutation of Lys191 to alanine [1]	Change in Entropy-Dependent Hydrophobic Binding Forces by the mutation of Lys191 to alanine [1]	enthalpy-dependent electrostatic binding forces, change by mutation of Lys191 to alanine (in words) ([1]; van 't Hoff plots)	Change in Enthalpy-Dependent Electrostatic Binding Forces by the mutation of Lys191 to alanine [1]	thermodynamic driving force of binding (source of negative ∆Gº) to HA-WT [2]	entropy-dependent hydrophobic binding forces, change by mutation of Lys191 to alanine (in words) ([1]; van 't Hoff plots)
O=C(O)COCCN1CCN([C@@H](c2ccccc2)c2ccc(Cl)cc2)CC1 [(S)-cetirizine, (S)-cetirizine dihydrochloride]	~6.2 times	↓**	↑**	significantly reduced	↓**	predominantly achieved by enthalpy (∆Hº)	–
O=C(O)COCCN1CCN([C@H](c2ccccc2)c2ccc(Cl)cc2)CC1 [levocetirizine, Levocetirizine dihydrochloride]	approximately 3.6 times	↓**	↓*	significantly increased	↑*	caused by both enthalpy (∆Hº) and entropy (-T∆Sº)	significantly reduced
